From patent publication US20190327974A1, “SYNERGISTS FOR IMPROVED PESTICIDES” (priority 2017, published 2019)

These molecules were tested against T1, Gly137Asp LcαE7 (Lucilia cuprina, UniProt Q25252, G137D) (assay: Enzyme inhibition assay with 4-nitrophenol butyrate, Gly137Asp variant). Conditions: not given.
T1 sequence (Q25252 1-570 G137D): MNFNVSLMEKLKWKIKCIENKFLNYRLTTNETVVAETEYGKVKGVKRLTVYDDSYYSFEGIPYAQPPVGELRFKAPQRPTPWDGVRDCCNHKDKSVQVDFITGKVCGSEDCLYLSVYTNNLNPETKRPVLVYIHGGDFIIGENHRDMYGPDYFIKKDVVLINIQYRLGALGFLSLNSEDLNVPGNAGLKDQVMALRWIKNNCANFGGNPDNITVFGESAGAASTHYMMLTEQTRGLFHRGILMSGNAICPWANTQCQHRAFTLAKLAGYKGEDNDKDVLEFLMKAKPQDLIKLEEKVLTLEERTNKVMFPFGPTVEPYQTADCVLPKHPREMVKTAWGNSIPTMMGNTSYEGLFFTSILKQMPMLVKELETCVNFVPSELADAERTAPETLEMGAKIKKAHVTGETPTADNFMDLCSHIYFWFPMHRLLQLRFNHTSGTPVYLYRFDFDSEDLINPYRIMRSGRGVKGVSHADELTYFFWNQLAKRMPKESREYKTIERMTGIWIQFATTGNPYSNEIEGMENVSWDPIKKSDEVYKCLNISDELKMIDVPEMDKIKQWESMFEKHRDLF
Type: biochemical
Experimental: Inhibition of wild-type αE7 and the Gly137Asp αE7 variant was determined by a competition assay between the native-substrate analogue 4-nitrophenol butyrate (Sigma) and the boronic acid compounds. Initially, the Michalis constant (KM) with 4-nitrophenol butyrate was measured for both enzymes to determine an appropriate concentration of substrate for use in the competition assays. Formation of the 4-nitrophenolate product of hydrolysis was monitored at 405 nm in the presence of enzyme and eight different concentrations of substrate. 4-nitrophenol butyrate was prepared in methanol to 100 mM and serially diluted 1-in-2 to achieve concentrations from 100 mM to 0.8 mM. Enzyme stocks were prepared in 4 mg/ml bovine serum albumin (Sigma) to maintain enzyme stability. Reactions were prepared by pipetting 178 μl assay buffer (100 mM NaCl, 20 mM HEPES pH 7.5) and 2 μl substrate (final concentrations of 1000 to 8 μM) into 300 μl wells of a 96-well plate. The reaction was initiated by the addition of 20 μl enzyme (final concentration 2.5 nM for wildtype αE7 and 4 nM for Gly137Asp αE7). Product formation was monitored for four minutes at room temperature using an Epoch microplate spectrophotometer (BioTek) and the initial rates of ester hydrolysis were determined by linear regression using GraphPad Prism. The Michalis constant was determined by fitting the initial rates to the Michalis-Menton equation (FIG. 10).
Enzyme inhibition with the boronic acid compounds was determined by assaying the initial rate of 4-nitrophenol butyrate hydrolysis in the presence of either neat DMSO or the boronic acid compounds in DMSO. Compounds were prepared by serially diluting 1-in-3 an initial 10 mM stock to achieve concentrations from 10 mM to 2 nM. Reactions were prepared by pipetting 178 μl assay buffer supplemented with substrate to a final concentration equal to the KM of the enzyme (15 μM for wildtype αE7 and 250 μM for Gly137Asp αE7) into wells of a 96-well plate. 2 μl neat DMSO or 2 μl serially diluted inhibitor (final concentrations of 100 μM to 20 pM) were added to the wells. The reaction was initiated by the addition of 20 μl enzyme (final concentration 0.5 nM for wildtype αE7 and 10 nM for Glyl37Asp αE7). Product formation was monitored for four minutes at room temperature and the initial rates of ester hydrolysis were determined by linear regression. To determine the concentration of boronic acid compounds required to inhibit 50% of esterase activity (IC50), a four-parameter sigmoidal dose-response curve was fitted to percentage inhibition using GraphPad Prism (FIGS. 7 and 8). Ki values were determined using the Cheng-Prusoff equation assuming competitive inhibition (Yung-Chi, C. & Prusoff W. H. Relationship between the inhibition constant (KI) and the concentration of inhibitor which causes 50 percent inhibition (150) of an enzymatic reaction. Biochem. Pharmacol. 22, 3099-3108 (1973)).
The two most common CBE-mediated insecticide resistance mechanisms involve increased protein expression, or mutation to gain new catalytic (OP-hydrolase) functions. Compounds 1 to 5 were tested against the resistance associated Gly137Asp variant of LcαE7^17,27 (Table 1). The Glyl37Asp mutation is located in the oxyanion hole and positions a new general base in the active site to catalyze dephosphorylation of the catalytic serine. Thus, compounds that inhibit WT LcαE7 as well as this common resistance associated Glyl37Asp variant would increase the efficacy of OPs by targeting both detoxification routes. Encouraged by the activity of the boronic acids 1 to 5, the compounds were tested against the Gly137Asp variant of LcαE7 (Table 1).
For `CC(C)(C)Oc1ccc(B(O)O)cc1Br` [Compound 3.12], the Ki was 990 nM.
`CC(C)Oc1cc(Br)cc(B(O)O)c1` [Compound 3.7, 3-Bromo-5-isopropoxyphenylboronic acid] showed a Ki of 76 nM.
`OB(O)c1ccc(OCc2ccccc2F)c(Cl)c1` [Compound 5, 3-Chloro-4(2′-fluorobenzyloxy) phenylboronic acid] gave a Ki of 170 nM.
Molecule `OB(O)c1cc(Br)cc(OCc2ccccc2)c1` [Compound 3.9] has a Ki of 25 nM.
Work on `OB(O)c1cc(Br)cc(Oc2ccccc2)c1` [Compound 3.10, 3-Bromo-5-phenoxyfenylboronic acid] yielded a Ki of 18 nM.
Molecule `Cc1ccc(B(O)O)cc1Br` [Compound 1] has a Ki of 49 nM.
Molecule `CN1CCN(c2cc(Br)cc(B(O)O)c2)CC1` [Compound 3.4] has a Ki of 1000 nM.
`OB(O)c1cc(Br)c2ccccc2c1F` [Compound 3.6] showed a Ki of 71 nM.
`OB(O)c1cc(Br)cc(N2CCCCC2)c1` [Compound 3.3] showed a Ki of 150 nM.
With `OB(O)c1ccccc1` [PBA, phenylboronic acid, reference compound] the Ki was 450 nM.
Work on `OB(O)c1cc(Br)cc(N2CCCC2)c1` [Compound 3] yielded a Ki of 110 nM.
`OB(O)c1ccc2ccccc2c1` [Compound 4] showed a Ki of 190 nM.
`Cc1ccc(B(O)O)cc1OCc1ccccc1` [Compound 2] was tested, and the Ki was 29 nM.
`OB(O)c1cc(Br)cc(OC(F)(F)F)c1` [Compound 3.8] gave a Ki of 110 nM.
Work on `OB(O)c1cc(Br)cc2c1OCC2` [Compound 3.5] yielded a Ki of 440 nM.
`O=C(c1cc(Cl)cc(B(O)O)c1)N1CCOCC1` [Compound 3.11] showed a Ki of 1000 nM.

Same assay, conditions: Cheng-Prusoff from dose-response; 4-nitrophenol butyrate; read-out: Ki Gly137Asp LcαE7
In the case of `OB(O)c1cc(Br)cc(N2CCOCC2)c1` [Compound 3.1], the Ki is reported as 430 nM.
